Experimental data published in patent US20100298141A1, “SUBSTITUTED PYRIDINE N-OXIDE HERBICIDES” (E. I. DU PONT DE NEMOURS AND COMPANY, priority 2007, published 2010).

Experiments:
barnyardgrass [1] = assay: Test A pre-/postemergence greenhouse test; format: in vivo, Echinochloa crus-galli; conditions: for Barnyardgrass plant response rating: 0 to 100 scale
Outline: (§1)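 Seeds sown in a loam soil–sand blend got a preemergence directed soil spray of compound in a non-phytotoxic solvent mixture containing surfactant. Postemergence sprays of the same formulation went at the same time onto plants 2–10 cm tall at the one- to two-leaf stage. Injury was scored visually against untreated controls after about ten days in the greenhouse.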

crabgrass = assay: Test A pre-/postemergence greenhouse test; format: in vivo, Digitaria sanguinalis; conditions: for Crabgrass, Large plant response rating: 0 to 100 scale
Outline: as §1

giant foxtail = assay: Test A pre-/postemergence greenhouse test; format: in vivo, Setaria faberi; conditions: for Foxtail, Giant plant response rating: 0 to 100 scale
Outline: as §1

morningglory = assay: Test A pre-/postemergence greenhouse test; format: in vivo, Ipomoea spp.; conditions: for Morningglory plant response rating: 0 to 100 scale
Outline: as §1

redroot pigweed = assay: Test A pre-/postemergence greenhouse test; format: in vivo, Amaranthus retroflexus; conditions: for Pigweed plant response rating: 0 to 100 scale
Outline: as §1

velvetleaf = assay: Test A pre-/postemergence greenhouse test; format: in vivo, Abutilon theophrasti; conditions: for Velvetleaf plant response rating: 0 to 100 scale
Outline: as §1

wheat = assay: Test A pre-/postemergence greenhouse test; format: in vivo, Triticum aestivum; conditions: for Wheat plant response rating: 0 to 100 scale
Outline: as §1

corn = assay: Test A pre-/postemergence greenhouse test; format: in vivo, Zea mays; conditions: for Corn plant response rating: 0 to 100 scale
Outline: as §1

rice = assay: Test C flooded paddy test; format: in vivo, Oryza sativa; conditions: Flood
Outline: (§2)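 Pots were flooded to 3 cm above the soil surface at treatment, compound applied directly to the paddy water, and that depth held throughout. Plants were kept in a greenhouse for 13 to 15 days, then visually rated against untreated controls.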

umbrella sedge = assay: Test C flooded paddy test; format: in vivo, Cyperus difformis; conditions: Flood
Outline: as §2

duck salad = assay: Test C flooded paddy test; format: in vivo, Heteranthera limosa; conditions: Flood
Outline: as §2

barnyardgrass [2] = assay: Test C flooded paddy test; format: in vivo, Echinochloa crus-galli; conditions: Flood
Outline: as §2

[3] = Postemergence, 125 g ai/ha, 0 is no effect, 100 is complete control
[4] = Postemergence, 500 g ai/ha, 0 is no effect, 100 is complete control
[5] = Preemergence, 125 g ai/ha, 0 no effect, 100 complete control
[6] = Preemergence, 500 g ai/ha, 0 to 100 scale where 0 is no effect and 100 is complete control
[7] = 31 g ai/ha, scale 0 to 100 (0 no effect, 100 complete control)
[8] = 62 g ai/ha, scale 0 to 100, 0 no effect, 100 complete control, 13 to 15 days
[9] = 125 g ai/ha, scale 0 to 100, 0 no effect, 100 complete control, 13 to 15 days
[10] = 250 g ai/ha, scale 0 to 100, 0 no effect, 100 complete control, 13 to 15 days

Which results are given for `Cn1nc(C(F)(F)F)c(CS(=O)(=O)c2cc(F)cc[n+]2[O-])c1Cl` [Compound 41]?
Barnyardgrass plant response rating (barnyardgrass [1]; [3]): 0; Barnyardgrass plant response rating (barnyardgrass [1]; [4]): 0; Barnyardgrass plant response rating (barnyardgrass [1]; [5]): 0; Plant response rating, Barnyardgrass (barnyardgrass [1]; [6]): 60; Crabgrass, Large plant response rating (crabgrass; [3]): 0; Crabgrass, Large plant response rating (crabgrass; [4]): 0; Crabgrass, Large plant response rating (crabgrass; [5]): 0; Plant response rating, Crabgrass, Large (crabgrass; [6]): 0; Foxtail, Giant plant response rating (giant foxtail; [3]): 0; Foxtail, Giant plant response rating (giant foxtail; [4]): 0; Foxtail, Giant plant response rating (giant foxtail; [5]): 0; Plant response rating, Foxtail, Giant (giant foxtail; [6]): 0; Morningglory plant response rating (morningglory; [3]): 0; Morningglory plant response rating (morningglory; [4]): 0; Morningglory plant response rating (morningglory; [5]): 0; Plant response rating, Morningglory (morningglory; [6]): 20; Pigweed plant response rating (redroot pigweed; [3]): 0; Pigweed plant response rating (redroot pigweed; [4]): 0; Pigweed plant response rating (redroot pigweed; [5]): 0; Plant response rating, Pigweed (redroot pigweed; [6]): 0; Velvetleaf plant response rating (velvetleaf; [3]): 0; Velvetleaf plant response rating (velvetleaf; [4]): 0; Velvetleaf plant response rating (velvetleaf; [5]): 0; Plant response rating, Velvetleaf (velvetleaf; [6]): 0; Wheat plant response rating (wheat; [3]): 0; Wheat plant response rating (wheat; [4]): 0; Wheat plant response rating (wheat; [5]): 0; Plant response rating, Wheat (wheat; [6]): 0; Corn plant response rating (corn; [3]): 0; Corn plant response rating (corn; [4]): 0; Corn plant response rating (corn; [5]): 0; Plant response rating, Corn (corn; [6]): 30; Plant response rating, Rice (rice; [7]): 0; Plant response rating, Rice (rice; [8]): 0; Plant response rating, Rice (rice; [9]): 0; Plant response rating, Rice (rice; [10]): 15; Plant response rating, Sedge, Umbrella (umbrella sedge; [7]): 80; Plant response rating, Sedge, Umbrella (umbrella sedge; [8]): 80; Plant response rating, Sedge, Umbrella (umbrella sedge; [9]): 80; Plant response rating, Sedge, Umbrella (umbrella sedge; [10]): 80; Plant response rating, Ducksalad (duck salad; [7]): 75; Plant response rating, Ducksalad (duck salad; [8]): 75; Plant response rating, Ducksalad (duck salad; [9]): 75; Plant response rating, Ducksalad (duck salad; [10]): 80; Plant response rating, Barnyardgrass (barnyardgrass [2]; [7]): 0; Plant response rating, Barnyardgrass (barnyardgrass [2]; [8]): 0; Plant response rating, Barnyardgrass (barnyardgrass [2]; [9]): 0; Plant response rating, Barnyardgrass (barnyardgrass [2]; [10]): 0
